The target of experiment [1] is T1, delF508-CFTR chloride ion channels (Homo sapiens, UniProt P13569, DEL508-508).
T1 construct: functional delF508-CFTR chloride ion channels in the apical membrane of a polarized CF human bronchial epithelium; endogenous in cells
Briefly: Ussing chamber short-circuit current electrical assay. It counts as cell-based. The method, then:
The method of profiling can further include determining the degree of functional delF508-CFTR chloride ion channels in the apical cell membrane of cells (e.g., polarized CF human airway epithelial cells). This method can use electrophysiological methods, such as Ussing chamber-based measurement of short-circuit current, voltammeter-based measurement of open-circuit transepithelial voltage and transepithelial resistance, and patch-clamp electrophysiology.
An electrical assay was also performed to determine the functional rescue of delF508-CFTR to the apical cell membrane in a polarized epithelium using the compounds described herein. The metrics analyzed were the basal short-circuit Cl^− current, the change or delta Cl^− current stimulated by forskolin, the total stimulated Cl^− current (basal and forskolin), and the change or delta Cl^− current inhibited by GlyH101. For exemplary purposes, DMSO (100 nM) and VX-809 (100 nM equivalent) treatments were controls, and a CFCL corrector was tested (see FIG. 9).
Only high-resistance cell monolayers (>800 to 1,000 Ohms per cm^2) were used in the experiments. Basal short-circuit current (ISC) was measured and documented. Amiloride was added to the apical side of the Ussing chamber to block any contribution of ENaC or other sodium or cation channels under basal or stimulated conditions. The effect of amiloride was negligible under these cell culture conditions. In the continued presence of amiloride (100 μM), forskolin (10 μM) was added to both sides of the monolayer to selectively open any delF508-CFTR chloride channels in the apical cell membrane. This activation step uncovered any remaining corrected delF508-CFTR chloride ion channels in the apical membrane of the polarized CF human bronchial epithelium. The final step was the addition of a CFTR-selective inhibitor, GlyH101 (100 μM), to reverse the effect of forskolin.
Ussing chamber-derived short-circuit current data were obtained for Compounds C-15 and C-73 (see FIGS. 10 and 11). […] The same protocol of additions of drugs to the apical side of the Ussing chamber was performed on each cell monolayer as described above. CPT-cAMP and IBMX are equivalent and CFTR-specific agonists to forskolin. As described above, VX-770 is a CFTR potentiator drug added to activate any remaining corrected CFTR present.

The next experiment deals with T2, delF508-CFTR (Homo sapiens, UniProt P13569, DEL508-508).
T2 construct: Unaltered CFBE41o− cells were used as the model; endogenous in cells; host or cells: CFBE41o- human CF bronchial epithelial cells (delF508 homozygous, not overexpressing)
T2 sequence (P13569 with tags, fused parts or gaps DEL508-508): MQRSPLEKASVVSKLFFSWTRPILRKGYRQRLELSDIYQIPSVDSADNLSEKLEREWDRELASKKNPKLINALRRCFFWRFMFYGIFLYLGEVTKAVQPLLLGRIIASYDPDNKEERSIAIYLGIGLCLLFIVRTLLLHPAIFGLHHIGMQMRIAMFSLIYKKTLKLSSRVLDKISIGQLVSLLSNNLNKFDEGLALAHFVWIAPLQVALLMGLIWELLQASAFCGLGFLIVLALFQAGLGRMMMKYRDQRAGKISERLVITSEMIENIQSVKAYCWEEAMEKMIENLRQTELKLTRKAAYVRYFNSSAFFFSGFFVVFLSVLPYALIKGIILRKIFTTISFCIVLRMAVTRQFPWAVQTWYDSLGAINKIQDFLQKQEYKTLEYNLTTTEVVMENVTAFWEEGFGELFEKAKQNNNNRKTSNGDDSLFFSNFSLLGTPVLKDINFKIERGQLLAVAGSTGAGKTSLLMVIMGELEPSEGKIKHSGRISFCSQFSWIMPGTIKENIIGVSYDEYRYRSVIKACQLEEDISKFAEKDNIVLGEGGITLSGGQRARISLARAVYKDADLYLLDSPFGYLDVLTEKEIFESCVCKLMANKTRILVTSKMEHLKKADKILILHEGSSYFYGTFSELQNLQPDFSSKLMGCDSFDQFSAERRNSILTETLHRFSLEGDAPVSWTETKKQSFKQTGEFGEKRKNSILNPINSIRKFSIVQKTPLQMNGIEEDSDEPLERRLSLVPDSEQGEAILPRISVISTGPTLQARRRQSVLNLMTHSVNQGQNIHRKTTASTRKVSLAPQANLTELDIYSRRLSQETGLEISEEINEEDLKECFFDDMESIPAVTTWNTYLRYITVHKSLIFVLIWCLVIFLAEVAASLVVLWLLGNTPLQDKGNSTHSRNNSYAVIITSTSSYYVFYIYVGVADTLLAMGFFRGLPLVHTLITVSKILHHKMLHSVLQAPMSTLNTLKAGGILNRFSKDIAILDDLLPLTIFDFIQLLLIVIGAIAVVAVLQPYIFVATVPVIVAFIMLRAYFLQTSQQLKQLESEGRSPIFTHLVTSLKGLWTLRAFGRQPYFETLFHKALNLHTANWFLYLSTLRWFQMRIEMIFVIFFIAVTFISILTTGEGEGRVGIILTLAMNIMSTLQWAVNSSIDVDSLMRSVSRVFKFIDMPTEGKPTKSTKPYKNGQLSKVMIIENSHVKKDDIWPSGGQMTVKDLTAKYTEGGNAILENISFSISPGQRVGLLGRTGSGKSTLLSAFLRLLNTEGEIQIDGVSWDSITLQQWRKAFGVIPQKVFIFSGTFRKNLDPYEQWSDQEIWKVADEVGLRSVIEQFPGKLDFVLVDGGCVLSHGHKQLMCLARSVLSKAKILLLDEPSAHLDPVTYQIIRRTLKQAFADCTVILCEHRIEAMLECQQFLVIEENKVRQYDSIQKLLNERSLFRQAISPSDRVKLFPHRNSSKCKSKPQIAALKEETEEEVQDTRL
Briefly: SPQ halide-sensitive fluorescence dye profiling assay (rescue of halide efflux). It counts as cell-based. The note with it: for EC50 / EC50 (μM): SPQ assay, 8-point concentration-response curve, CFBE41o− cells; for Emax: VX-809 at 3 μM treated as 100% efficacy; for Efficacy Comparison to 3 μM VX-809: compared to VX-809 at 3 μM; for potency and efficacy versus VX-809 in SPQ profiling: compounds advanced to further profiling. Here is the method: The method of profiling can include detecting the rescue of halide efflux from a cell. The step of detecting a rescue of halide efflux from the cell can be monitored using the halide quenched dye 6-methoxy-N-(3-sulfopropyl)-quinolinium (SPQ, Molecular Probes Inc., Eugene, Oreg.). In this method, cells are treated with a compound as described herein for a period of time (e.g., 48 hours). The rescue or correction of halide efflux is then detected using the SPQ assay with the halide dye. […] Optionally, the halide efflux is chloride efflux. The method of screening can further comprise performing the method with multiple concentrations of the compound.
The compounds were initially subjected to the SPQ halide-sensitive fluorescence dye profiling assay for rescue or correction of membrane chloride ion permeability or transport with an 8-point concentration-response curve. The EC50 values for the compounds described herein were determined and compared to the efficacy of the industry standard Vertex 809 (VX-809; Vertex Pharmaceuticals, Cambridge, Mass.) at 3 μM, which is the maximally effective profiling dose for VX-809 (Table 1). The VX-809 dosage at 3 μM was treated as having 100% efficacy in the comparison.
To perform the SPQ high throughput screening assay, CFBE41o− cells were seeded into 96-well microtiter plates and were loaded with the fluorescent halide-sensitive dye, SPQ, in serum-containing culture medium. Certain wells were loaded with known positive control corrector molecules, including VX-809. The test compounds were loaded into wells and were tested in triplicate wells at a 10 μM dose and incubated over 48 hours at room temperature. During the 48 hour period, SPQ was absorbed. Plates were washed in a sodium chloride (NaCl) based Ringer and read once over two minutes to set the baseline SPQ fluorescence activity. Then, NaCl was replaced by sodium nitrate (NaNO3) based Ringer. The plates were read twice over four minutes. The primary high throughput screen (HTS) data were analyzed to detect any function of rescued delF508-CFTR under basal conditions. The plate was read up to two times to complete the SPQ HTS assay.

We go through 25 compounds from patent US9676779B2, “Small molecule CFTR correctors” (DISCOVERYBIOMED, INC., priority 2012, dated 2017).

T1 sequence (P13569 with tags, fused parts or gaps DEL508-508): as above

As for `CC(C)(C)c1cc(C(C)(C)C)c(NC(=O)c2c[nH]c3ccccc3c2=O)cc1O` [VX-770, reference compound], in experiment [1] (in the presence of forskolin, monolayer corrected with Compound C-15, FIG. 10), the “opening of additional delF508-CFTR channels (potentiation)” value is reported as “opens some additional delF508-CFTR channels”.
Broadly, the EC50 is the concentration giving half of the maximal effect. As usually defined, the Emax is the greatest response seen or fitted, relative to the assay's reference. With `CCOc1cc(-c2c(C)nn3c(C)c(C(=O)O)nnc23)ccc1Cl` [Compound C-59], on delF508-CFTR, the response was half-maximal at 0.16 µM (EC50); the Emax is 110%; the “Efficacy Comparison to 3 μM VX-809” value was 15-fold greater than VX-809; the “potency and efficacy versus VX-809 in SPQ profiling” value was “superior potency and efficacy to VX-809”. Also, in experiment [1] (increasing concentrations, FIG. 12), the “GlyH101-sensitive current, concentration-response” value is reported as “stimulate increased amounts of GlyH101-sensitive current”.
As to `Cc1nn2c(C)c(C(=O)O)nnc2c1-c1ccc(OC2CCCC2)cc1` [Compound C-73], on delF508-CFTR, a half-maximal effect (EC50) was put at 1.1 µM; the Emax was 125%; the “Efficacy Comparison to 3 μM VX-809” value is 5-fold greater than VX-809; the “potency and efficacy versus VX-809 in SPQ profiling” value is “superior potency and efficacy to VX-809”. Besides, the “correction of functional delF508-CFTR chloride ion channels (short-circuit current)” value in experiment [1] (apical membrane of polarized CF human bronchial epithelium) was “superior potency and equivalent to greater efficacy versus VX-809”.
As to `CCCOc1ccc(-c2c(C)nn3c(C)c(C(=O)O)nnc23)cc1` [Compound C-8], on delF508-CFTR, the EC50 is 5.7 µM, the Emax turned out to be 155% and the “Efficacy Comparison to 3 μM VX-809” value is recorded as 2-fold greater than VX-809.
With `CCOC(=O)c1nnc2c(-c3ccc(O)cc3)c(C)nn2c1C` [Compound C-19], on delF508-CFTR, the “EC50 (μM)” value is listed as “No effect” and the Emax stood at 0%.
As to `Cc1nnc(-c2nnc3c(-c4ccc(Cl)c(Cl)c4)c(C)nn3c2C)o1` [Compound C-42], at delF508-CFTR, the “EC50 (μM)” value is recorded as “No effect” and the Emax was determined as 5%.
Consider `Cc1nn2c(C)c(C(=O)O)nnc2c1-c1ccc2c(c1)OCCO2` [Compound C-58], for which the Emax on delF508-CFTR was found to be 100%.
In the case of `CCOC(=O)c1nnc2c(-c3ccc(Cl)c(Cl)c3)c(C)nn2c1C(=O)OCC` [Compound C-26.1], on delF508-CFTR, the “EC50 (μM)” value was “No effect (toxic” and the Emax was 0%.
Taken in the same sequence, the figures for `CCOC(=O)c1nnc2c(-c3ccc(Cl)cc3)c(C)nn2c1C(=O)OCC` [Compound C-28.1] were “No effect” and 0%.
In the case of `Cc1nn2c(C)c(C(=O)O)nnc2c1Cc1ccccc1` [Compound C-52], on delF508-CFTR, the EC50 turned out to be 20 µM, the Emax amounted to 70% and the “Efficacy Comparison to 3 μM VX-809” value was “Less than VX-809”.
In the case of `CCOC(=O)c1ccc2c(-c3ccc(Cl)c(Cl)c3)noc2n1` [Compound C-68.1], the Emax on delF508-CFTR worked out at 20%.
As to `Cc1nn2c(C)c(C(=O)N(C)C)nnc2c1-c1ccc(Cl)c(Cl)c1` [Compound C-31], at delF508-CFTR, the “EC50 (μM)” value is given as “No effect” and the Emax was 0%.
On to `O=C(O)c1ccc2c(-c3ccc(Cl)c(Cl)c3)n[nH]c2n1` [Compound C-66], for which the Emax at delF508-CFTR turned out to be 25%.
With `Cc1cnc(-c2nnc3c(-c4ccc(Cl)c(Cl)c4)c(C)nn3c2C)o1` [Compound C-41], on delF508-CFTR, the “EC50 (μM)” value was “No effect” and the Emax stood at 0%.
For the compound `CCOC(=O)c1nnc2c(-c3ccc(OC4CCCC4)cc3)c(C)nn2c1C` [Compound C-73.1], on delF508-CFTR, the Emax was -75%.
For `Cc1nn2c(C)c(C(=O)Oc3ccccc3)nnc2c1-c1ccc(Cl)c(Cl)c1` [Compound C-35], at delF508-CFTR, the EC50 is 0.7 µM, the Emax was found to be 100% and the “Efficacy Comparison to 3 μM VX-809” value was “Equivalent to VX-809”.
On to `CCS(=O)(=O)NC(=O)c1nnc2c(-c3ccc(Cl)c(Cl)c3)c(C)nn2c1C` [Compound C-37], for which, at delF508-CFTR, the EC50 is 5.1 µM, the Emax stood at 80% and the “Efficacy Comparison to 3 μM VX-809” value is listed as “Equivalent to VX-809”.
As to `CCOC(=O)c1nnc2c(-c3ccc(OCC)cc3)c(C)nn2c1C` [Compound C-17], at delF508-CFTR, the EC50 is above 30 µM, the Emax was determined as 75% and the “Efficacy Comparison to 3 μM VX-809” value is given as “Equivalent to VX-809”.
Taken in the same sequence, the figures for `COc1ccc(-c2c(C)nn3c(C)c(C(=O)O)nnc23)cc1OC` [Compound C-6] were 9.9 µM, 170% and 3-fold greater than VX-809.
On the same counts, the results for `CCCCOc1ccc(-c2c(C)nn3c(C)c(C(=O)O)nnc23)cc1` [Compound C-54] are 6.7 µM, 125% and 2-fold greater than VX-809.
On the same counts, the results for `Cc1nn2c(C)c(C(=O)O)nnc2c1C1CCCCC1` [Compound C-51] are 3.4 µM, 50% and “Equivalent to VX-809”.
With `CCOc1ccc(-c2c(C)nn3c(C)c(C(=O)O)nnc23)cc1` [Compound C-7], on delF508-CFTR, the half-maximal effective concentration (EC50) amounted to 7 µM, the Emax turned out to be 220% and the “Efficacy Comparison to 3 μM VX-809” value is 3-fold greater than VX-809.
Taken in the same sequence, the figures for `Cc1nn2c(C)c(C(=O)O)nnc2c1-c1ccc(O)cc1` [Compound C-9] were 17.8 µM, 120% and “Less than VX-809”.
Regarding `Cc1c(C(=O)O)nnc2c(-c3ccc(Cl)cc3)c(-c3ccc(Cl)cc3)nn12` [Compound C-10], on delF508-CFTR, the “EC50 (μM)” value is reported as “No effect” and the Emax is 40%.
Taken in the same sequence, the figures for `O=C(O)c1cn2ncc(-c3ccc(Cl)cc3)c2nn1` [Compound C-4] were “No effect” and 0%.
